Data set [1] in a line: Octanol-water distribution coefficient logD7.4, shake flask method. The note with it: 1-octanol/PBS, pH 7.4, PBS/1-octanol, read-out: logD7.4 experimental. Format: physicochemical. The method, then:
The lipophilicity of the radioligands was determined by the distribution coefficient logD7.4. The respective radioligand (10 µL, about 25 kBq) was added to a mixture of PBS (500 µL) and 1-octanol (500 µL) and the emulsion was vortexed for 1 min. After centrifugation 3 × 100 µL were taken of each layer and analysed by a γ-counter. The partition coefficient was calculated as logD7.4=log(cpmoctanol/cpmPBS) . Data were expressed as mean values ± SD from three experiments.

For a further data set, the system named is MCF-7-Y1 cells. Kind of data set: Cellular accumulation assay in MCF-7-Y1 cells. Format: cell-based, human. Particulars: nonspecific binding with 10 µM BIBP3226; [^18F]12 at 30 and 60 min. The method, then:
MCF-7-Y1 is a subclone that originated in Prof. […] MCF-7-Y1 cells were cultivated in MEM Earle´s liquid medium with 2.2 g/L NaHCO3 (Merck Biochrom, Darmstadt) containing 10% FBS and 1% L-glutamine. All cells were cultured under sterile conditions in a humidified atmosphere containing 5% CO2 at 37 °C. Cells were routinely passaged twice a week.
The cellular accumulation of Y1R radioligands by MCF-7-Y1 cells was measured: On the day prior to the experiment, 300,000 cells per well were seeded into 24-well plates (Greiner Bio-One). Attached cells were washed twice with cold PBS and 450 µL of assay medium (cell culture medium containing 0.1% BSA) were added to the cells for total binding. For non-specific binding, 400 µL of assay medium and 50 µL of medium containing 10 µM BIBP3226 were added. Finally, 50 µL of medium containing approx. 15 kBq of the respective radiotracer were added to each well, and cells were incubated at 37 °C for 10, 30, 60 or 90 min. After incubation, cells were washed with 500 µL of ice-cold PBS and lysed with 600 µL of warm 1 M NaOH. The lysed cells were transferred to counting tubes and analysed in the γ-counter (Wallac Wizard, Perkin Elmer, Waltham, MA, USA). Separate tubes containing 50 µL of medium with the radiotracer (approx. 15 kBq) were analysed as reference samples. Experiments were performed in sextuplicate (n = 6).

This is an account of results in PMC6736837, “^18F-labelled triazolyl-linked argininamides targeting the neuropeptide Y Y1R for PET imaging of mammary carcinoma” (Scientific Reports, 2019).

The structures appear in SMILES notation.

In the case of `N/C(=N/C(=O)NCc1cn([C@@H]2OC(C[18F])[C@@H](O)C(O)C2O)nn1)NCCC[C@@H](NC(=O)C(c1ccccc1)c1ccccc1)C(=O)NCc1ccc(O)cc1` (stereo partly drawn) [[^18F]11, (2R)‐5‐{[(1Z)‐Amino({[({1‐[(2R,5S)‐6‐([^18F]fluoromethyl)‐3,4,5‐trihydroxyoxan‐2‐yl]‐1H‐1,2,3‐triazol‐4‐yl}methyl)carbamoyl]imino})methyl]amino}‐2‐(2,2‐diphenylacetamido)‐N‐[(4‐hydroxyphenyl)-methyl]pentanamide], the logD in data set [1] stood at 0.78 ± 0.005. Moreover, the “specific accumulation in MCF-7-Y1 cells (total radioactivity in each well = 100%)” value with MCF-7-Y1 cells is on record as “almost no specific binding”.

Turning to `N/C(=N/C(=O)NCc1cn(CCOCCOCCOCC[18F])nn1)NCCC[C@@H](NC(=O)C(c1ccccc1)c1ccccc1)C(=O)NCc1ccc(O)cc1` [[^18F]13, (2R)‐5‐{[(1Z)‐Amino[({[1‐(2‐{2‐[2‐(2‐[^18F]fluoroethoxy)ethoxy]ethoxy}ethyl)‐1H‐1,2,3‐triazol‐4‐yl]methyl}carbamoyl)imino]methyl]amino}‐2‐(2,2‐diphenylacetamido)‐N‐[(4‐hydroxyphenyl)-methyl]pentanamide], the logD in data set [1] is 1.49 ± 0.003. Further, in the data set on MCF-7-Y1 cells, the “specific accumulation in MCF-7-Y1 cells (total radioactivity in each well = 100%)” value came out at 1%.
